Assays:
[1] = molar heat capacity at constant pressure; conditions: 101.33 kPa, Crystal 2, Small (less than 1 g) adiabatic calorimetry
[2] = Molar enthalpy of transition or fusion; conditions: DSC

O[C@@H]1[C@@H](O)[C@@H]2OC[C@@H](O2)[C@H]1O [1,6-anhydro-β-D-glucopyranose]
Conditions | Molar enthalpy of transition or fusion [kcal/mol] | molar heat capacity at constant pressure [J/K/mol]
[1], 5 K | – | 0.138
[1], 10 K | – | 1.118
[1], 15 K | – | 3.898
[1], 20 K | – | 7.99
[1], 25 K | – | 12.65
[1], 30 K | – | 17.41
[1], 35 K | – | 22.01
[1], 40 K | – | 26.36
[1], 45 K | – | 30.52
[1], 50 K | – | 34.47
[1], 60 K | – | 41.86
[1], 70 K | – | 48.71
[1], 80 K | – | 55.17
[1], 90 K | – | 61.41
[1], 100 K | – | 67.71
[1], 110 K | – | 74.28
[1], 120 K | – | 79.92
[1], 130 K | – | 85.48
[1], 140 K | – | 91.03
[1], 150 K | – | 96.6
[1], 160 K | – | 102.2
[1], 170 K | – | 107.8
[1], 180 K | – | 113.5
[1], 190 K | – | 119.2
[1], 200 K | – | 125
[1], 210 K | – | 130.9
[1], 220 K | – | 136.9
[1], 230 K | – | 143
[1], 240 K | – | 149.2
[1], 250 K | – | 155.5
[1], 260 K | – | 162
[1], 270 K | – | 168.5
[1], 280 K | – | 175.1
[1], 290 K | – | 181.7
[1], 298.15 K | – | 187.2
[1], 300 K | – | 188.5
[1], 310 K | – | 195.5
[1], 320 K | – | 202.7
[1], 330 K | – | 210.3
[1], 340 K | – | 218.6
[1], 350 K | – | 227.1
[1], 360 K | – | 235.5
[1], 370 K | – | 244
[1], 380 K | – | 252.5
[1], 384 K | – | 255.9
[2], Crystal 1 | 0.693 | –
[2], Crystal 2 | 5.98 | –

— the NIST ThermoML archive (doi:10.1016/j.jct.2015.01.005)
